Here are results for five substances from publication PMC7922534, “Searching for Peptide Inhibitors of T Regulatory Cell Activity by Targeting Specific Domains of FOXP3 Transcription Factor” (Biomedicines, 2021).

The test system of series [1] is murine CD4+CD25+ Treg cells. Nature of the series: In vitro Treg inhibition: anti-CD3 stimulated effector T cells co-cultured with Treg cells, tritiated thymidine incorporation. The series is classed as cell-based, mouse. The note with it: peptide 50 μM, BALB/c Teff 10^5 + Treg 10^4 cells/well, 3 days, tritiated thymidine. How it is done: (§1) In vitro assays were carried out using (i) the Karpas 299 human cell line (ACC-31, DSMZ, Germany), derived from a human lymphoma with a regulatory T cell profile or (ii) using natural Treg cells isolated from the murine splenocytes. To evaluate the effect of peptides on the immunosuppressive activity of the Karpas 299 cell line, a “mixed lymphocyte reaction” (MLR) assay was carried out using peripheral blood mononuclear cells (PBMCs) from two donors (previously tested to induce a strong MLR reaction in co-culture) (1 × 10^5 cells/well per each PBMC) in the presence or absence of Karpas 299 (1 × 10^4 cells/well). Peptides were added at 50 μM to the co-cultures to evaluate their capacity to restore the production of interferon-gamma (IFN-γ) inhibited by Karpas 299. After 48 hours, the supernatants were extracted to measure interferon-gamma (IFN-γ) by means of a commercial ELISA (Pharmingen, San Diego, CA, US). In vitro assays for Treg inhibition using natural Treg cells: Murine CD4+CD25+ (Treg cells), and CD4+CD25-T-cells (effector T cells) were purified from murine spleen cells by using a murine regulatory T-cell isolation kit (Miltenyi Biotec, Bergisch Gladbach, Germany) according to the manufacturer’s instructions. The purity of the resulting T-cell populations was confirmed to be >95% by flow cytometry. Inhibition of murine T regulatory cell function was measured in an in vitro assay of T-cell stimulation. Effector T cells (10^5 cells/well) from BALB/c mice were stimulated in vitro with 2, 5 μg/mL of anti-mouse CD3 antibody (Pharmingen) in the presence/absence of purified Treg cells (10^4 cells/well) and the indicated peptides (50 μM). T-cell proliferation was measured 3 days later as previously described. Percentage of Treg inhibition was calculated using the following formula: % inhibition= 100*((cpm of Teff&Treg co-cultures in the presence of peptide - cpm of Teff&Treg co-cultures)/(cpm of Teff - cpm of Teff&Treg co-cultures)). The Institutional Review Board on Human Subjects (Clínica Universidad de Navarra, Ref 2016.118) approved this research, and informed consent was obtained from all blood donors.
Background: Uptake of a labelled nucleoside into DNA is a usual measure of proliferation.

Another series concerns FOXP3/NFAT1. The experiment in a line: FOXP3/NFAT interaction by Alphascreen. The class given is binding. The note with it: alpha screen; Figure 6C. How it is done:
(§2) The screening of peptide binders to FOXP3 was performed by surface plasmon resonance (SPR) using a ProteOn XPR36 (Bio-Rad, Hercules CA, USA) optical biosensor. Recombinant protein FOXP3-6His produced and purified from E-coli was immobilized covalently onto a GLC sensor chip (Bio-Rad) using the coupling reagents sulfo-NHS (N-Hydroxysulfosuccinimide) and EDC (1-Ethyl-3-(3-dimethylaminopropyl) carbodiimide, (Bio-Rad) as previously described. Peptide solutions (10 μM) were injected by triplicate in running buffer (phosphate-buffered saline, 0.005% (v/v) Tween 20, pH 7.4) at a flow of 30 μL/min. The interspot signal (obtained in the chip surface not immobilized with protein) was used as reference. FOXP3/NFAT1 and FOXP3/AML1 interactions were analyzed by Alphascreen technology as previously described according to the manufacturer’s protocol (Perkin Elmer, Benelux). Reactions were performed in a 40 μL final volume in 96-well Optiwell microtiter plates (Perkin Elmer). […] FOXP3/AML1 interaction was measured following a similar protocol using FOXP3-GST and AML1-His proteins. Exposure of the reaction to direct light was avoided as much as possible, and the emission of light from the acceptor beads was measured in the EnVision plate reader after the indicated incubation period (Perkin Elmer, Benelux).
A general note: Alpha assays give light when donor and acceptor beads are brought close together.

In the next series the test system is Foxp3–NFAT interaction. The experiment in a line: Co-immunoprecipitation and Western blot of Flag-Foxp3 and HA-NFAT in HEK293 cells. The class given is cell-based. The note with it: HEK293 cells transfected with Flag-Foxp3 and HA-NFAT, peptide 100 μM; Figure 7. As to the method:
HEK293 cells were cultured in Dulbecco modified Eagle medium (Invitrogen) supplemented with 8% heat-inactivated fetal calf serum (FCS), penicillin, and streptomycin (Invitrogen) at 37 °C and 5% CO2. Plasmids cells were grown to 50% confluence in 6-well plates (Nunc) and transfected with a mixture of 2 μg of DNA plasmids (1 μg of FLAG-FOXP3 (expressing Foxp3 linked to the DYKDDDDK peptide tag and 1 μg of HA-NFAT expressing NFAT linked to the […] peptide tag), kindly provided by Dr Paul, Coffer, Utrech, The Netherlands)) and 8 μL PEI (polyethylenimine) overnight; the next day, cells were treated with 393–403 L, 397–406 C, or an irrelevant peptide at 100 μM. Twenty four hour later, HEK 293 cells were lysed in NP40 lysis buffer (0.05 M Tris-HCl pH 7.5, 0.5% Nonidet P40, 0.15 M NaCl, 0.01 M EDTA) containing a HALT^TM protease inhibitor cocktail (ThermoScientific), and immunoprecipitation was performed utilizing anti-FLAG coupled beads (Sigma) during 2 h at 4 C. Beads were washed 3x in lysis buffer, boiled, and samples were separated by SDS-PAGE, electrophoretically transferred to polyvinylidene difluoride membrane (Millipore, Bedford, MA), and hybridized with antibodies as indicated. Immunocomplexes were detected using enhanced chemiluminescence (Biorad).
Background: Immunoblotting shows a protein as a band on a membrane.

The subject of another series is hepatocellular carcinoma. The note with it: murine model of hepatocellular carcinoma; cited from earlier work. The text has this: (§3) We have also focused on the screening campaign of peptides derived from the FOXP3 FKH domain (Section 3.3). Although we identified several peptides encompassing the intermediate region of FKH with high capacity to bind to FOXP3, we focused on peptide […]-407, based on its ability to inhibit Treg activity in vitro.

The conditions of series [2]: cited from earlier work.
From the text: as §3

The next series relates to FOXP3:NFAT. The note with it: cited from earlier work.
From the text: as §3

A further series relates to T-cells. The note with it: cited from earlier work. The text has this: We focused on a peptide encompassing aminoacids 393–403, which correspond to a region implicated in FOXP/NFAT interaction, which is also key for Treg suppressive activity. FOXP3/NFAT interaction can regulate NFAT activity by (i) competing for binding to DNA [60, 61], (ii) by sequestering NFAT or other NFAT partners, or (iii) by forming a cooperative complex. The cooperative complex between FOXP3 and NFAT is required to repress the expression of the cytokine IL2, upregulate the expression of the Treg markers CTLA4 and CD25, and confer suppressor function. ...

The test system of series [3] is FOXP3 homodimerization. The experiment in a line: FOXP3 dimerization by Alphascreen. The class given is binding. The note with it: alpha screen.
In series [4] the test system is Karpas 299 human cell line. The experiment in a line: Mixed lymphocyte reaction with Karpas 299 Treg cell line, IFN-γ by ELISA. The series is classed as cell-based. The note with it: MLR of PBMCs from two donors + Karpas 299, peptide 50 μM, 48 h. How it is done:
as §1

The test system of another series is 4T1-FOXP3 cells. Nature of the series: Proliferation of 4T1-Ctrl and 4T1-FOXP3 tumor cells in vitro. The series is classed as cell-based. The note with it: peptide 50 μM, Figure 2C. How it is done:
The cell line 4T1-FOXP3 expressing FOXP3 was generated. 4T1-WT cells were transfected with empty pcDNA3.1 or with pcDNA3.1 FOXP3, expressing FOXP3 gene and neomycin (which confers resistance to G418 antibiotic) to generate 4T1-Ctrl and 4T1-Foxp3 cells. Briefly, 8 × 10^5 cells were seeded in 6-well culture plates one day prior to transfection. The cultures were 60–80% confluent at the time of transfection. Cells were transfected with 5 ug plasmid DNA per well for 6 hours using lipofectimine 2000 transfection reagent (Invitrogen). After 48 hours, 0.3 mg/mL of G418 drug (GIBCO) was added to the culture during 14 days for the selection of resistant cells. These cells were used in vitro to measure the effect of peptides to overcome the proliferative capacity inhibited by FOXP3. In addition, 4T1-FOXP3 and 4T1-Ctrl cells were injected in vivo (10^5 cells/ mouse) subcutaneously or intravenously to compare their capacity to induce tumors and lung metastases. Murine Lewis lung carcinoma expressing OVA, LLCOVA were kindly provided by Dr. Daniel Ajona (CIMA). The murine colon adenocarcinoma cell line MC38, LLOOVA, 4T1-Ctrl, and 4T1-FOXP3 were cultured in mouse medium (RPMI 1640, 10% fetal calf serum (Sigma), 100 U/mL penicillin, 100 μg/mL streptomycin (Invitrogene), […] Gentamicin (Gibco), 2 mM L-Glutamine (Lifetechnologies), […] β-mercaptoethanol (Sigma), and fungizone (GIBCO). All cell lines were cultured at 37 °C in a humidified atmosphere with 6.5% CO2.

The conditions of series [5]: cited from earlier work. As to the method:
(§4) The P60 peptide was able to improve the antitumor effect of other immunotherapeutic approaches constituting a potential candidate drug to inhibit Treg activity. An alanine scanning was conducted to identify key positions within the P60 sequence for FOXP3 binding P60. The introduct ...
The source holds these as a separate data set.

The subject of another series is FOXP3. The note with it: cited from earlier work. As to the method:
as §4

The test system of another series is Treg. The note with it: cited from earlier work. As to the method:
as §4

Series [6] deals with FOXP3/AML1. The note with it: cited from earlier work. The text has this:
(§5) A P60 peptide optimization program including alanine scanning, the introduction of D-aminoacids, or head-to-tail cyclization allowed us to improve its stability and efficacy in vitro and in vivo [23].

For series [7], the system named is FOXP3 homodimerization. The note with it: cited from earlier work.
From the text: as §5

Series [8] has as its system FOXP3/AML1. The experiment in a line: FOXP3/AML1 interaction by Alphascreen. The series is classed as binding. The note with it: Figure 3C. As to the method: as §2

For the substance “397–406 C: macrocycle consisting of a head-to-tail cyclization of peptide 397–406 (RVESEKGAVW; head-to-tail (backbone) cyclization)”, in series [1], the “Treg inhibitory capacity in vitro (proliferation of effector T cells with anti-CD3 in presence of Treg)” value (“Treg inhibitory capacity in vitro” for short) was “improved the Treg inhibitory capacity”. Also, in the series with FOXP3/NFAT1, the “disruption of FOXP3-NFAT heterodimerization” value is “retained the activity to impair Foxp3/NFAT interaction”. For the same substance, the “interaction between Foxp3 and NFAT by co-immunoprecipitation” value with Foxp3–NFAT interaction is “able to reduce significantly the interaction”.

On to “KCFVRVESEKG [F393–403, truncated version of peptide F393–407]”, for which, in [1], the “Treg inhibitory capacity in vitro” value is recorded as “able to inhibit Treg activity in vitro”. For the same substance, in the series on Foxp3–NFAT interaction, the “interaction between Foxp3 and NFAT by co-immunoprecipitation” value is recorded as “able to reduce significantly the interaction”. For the same substance, in the series with hepatocellular carcinoma, the “antitumor activity of in vivo peptide administration” value is on record as “had antitumor activity”. Also, the pharmacokinetics in vivo result in series [2] is “poor pharmacokinetics in vivo”. Besides, the “FOXP3:NFAT interaction” value in the series with FOXP3:NFAT was “able to inhibit FOXP3:NFAT interaction”. In the series on T-cells, the “T-cell proliferation and cytokine production in response to TCR stimulation” value was “enhanced T-cell proliferation and the production of cytokines IL-2, IFN-γ, or IL-17”.

As to “KEKLSAMQAHLAGKM [p250–265, 15-mer peptide from the leuzin zipper domain of FOXP3]”, in the series with FOXP3 homodimerization [3], the “inhibitory activity on FOXP3 homodimerization” value is “could not demonstrate an inhibitory activity”. The “Treg inhibitory capacity in vitro” value in series [1] was “able to fully restore the proliferative capacity of effector T-cells”.

Regarding RDFQSFRKMWPFFAM [p60], in [4], the “Treg inhibitory capacity (Karpas MLR assays)” value was “potential Treg inhibitory capacity”. In addition, the “effect on tumor-suppressor activity of FOXP3 (proliferation of 4T1-FOXP3 versus 4T1-Ctrl cells)” value in the series with 4T1-FOXP3 cells was “does not alter the antitumor activity of FOXP3”. Also, in series [5], the “ability to enter into the cells” value is recorded as “able to enter into the cells”. Further, in the series on FOXP3, the FOXP3 nuclear translocation entry is on record as “impair FOXP3 nuclear translocation”. Also, in the series on Treg, the “Treg activity in vitro and in vivo” value is “inhibit Treg activity in vitro and in vivo”. Further, the FOXP3/AML1 interaction entry in the series with FOXP3/AML1 [6] is given as “impairing”. Also, in the series with FOXP3 homodimerization [7], the FOXP3 dimerization result is reported as “impairing FOXP3 dimerization”.

As to SLFAVRRHLWGSHGN [F304–318], the “disruption of FOXP3/AML1 heterodimerization” value in the series with FOXP3/AML1 [8] was “able to impair FOXP3/AML1 heterodimerization”. In addition, in series [1], the “Treg inhibitory capacity in vitro” value is on record as “able to inhibit Treg activity”.
